Experimental data: ChEMBL document CHEMBL1201862, “PubChem BioAssay data set” (2004)
Active and inactive are the calls of the source.

Tests used:
[1] = biological target: T1, Leucine aminopeptidase (Plasmodium falciparum 3D7, UniProt Q8IL11); experiment: P. falciparum M17LAP inhibitors, primary screen, biochemical, fluorogenic H-Leu-NHMec substrate, 1536-well (AID 1619); assay type: functional
T1 sequence (Q8IL11 whole entry): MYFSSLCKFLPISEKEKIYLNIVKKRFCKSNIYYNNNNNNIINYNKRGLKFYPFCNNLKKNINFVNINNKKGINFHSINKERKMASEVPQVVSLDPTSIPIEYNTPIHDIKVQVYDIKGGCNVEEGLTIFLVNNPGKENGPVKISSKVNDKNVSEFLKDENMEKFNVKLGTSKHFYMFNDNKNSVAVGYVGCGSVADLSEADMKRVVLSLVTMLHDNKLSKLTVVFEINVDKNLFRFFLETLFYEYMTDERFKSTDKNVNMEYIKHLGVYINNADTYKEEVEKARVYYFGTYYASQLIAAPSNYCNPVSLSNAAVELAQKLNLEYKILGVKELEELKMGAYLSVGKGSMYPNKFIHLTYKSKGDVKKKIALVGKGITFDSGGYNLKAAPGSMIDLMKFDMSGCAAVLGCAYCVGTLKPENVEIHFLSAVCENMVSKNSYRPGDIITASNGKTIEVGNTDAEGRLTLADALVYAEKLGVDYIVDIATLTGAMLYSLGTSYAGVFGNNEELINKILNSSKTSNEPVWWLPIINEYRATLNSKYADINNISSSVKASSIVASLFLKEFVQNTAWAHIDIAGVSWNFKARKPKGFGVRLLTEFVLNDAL

[2] = biological target: Ras and Rab interactor 1/Tyrosine-protein kinase ABL1 (Homo sapiens, UniProt P00519+Q13671); assay type: functional;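 note: biochemical TR-FRET dose-response test measuring inhibition of binding between Rin1 and Abl proteins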
Ras and Rab interactor 1/Tyrosine-protein kinase ABL1, sequence (P00519 whole entry): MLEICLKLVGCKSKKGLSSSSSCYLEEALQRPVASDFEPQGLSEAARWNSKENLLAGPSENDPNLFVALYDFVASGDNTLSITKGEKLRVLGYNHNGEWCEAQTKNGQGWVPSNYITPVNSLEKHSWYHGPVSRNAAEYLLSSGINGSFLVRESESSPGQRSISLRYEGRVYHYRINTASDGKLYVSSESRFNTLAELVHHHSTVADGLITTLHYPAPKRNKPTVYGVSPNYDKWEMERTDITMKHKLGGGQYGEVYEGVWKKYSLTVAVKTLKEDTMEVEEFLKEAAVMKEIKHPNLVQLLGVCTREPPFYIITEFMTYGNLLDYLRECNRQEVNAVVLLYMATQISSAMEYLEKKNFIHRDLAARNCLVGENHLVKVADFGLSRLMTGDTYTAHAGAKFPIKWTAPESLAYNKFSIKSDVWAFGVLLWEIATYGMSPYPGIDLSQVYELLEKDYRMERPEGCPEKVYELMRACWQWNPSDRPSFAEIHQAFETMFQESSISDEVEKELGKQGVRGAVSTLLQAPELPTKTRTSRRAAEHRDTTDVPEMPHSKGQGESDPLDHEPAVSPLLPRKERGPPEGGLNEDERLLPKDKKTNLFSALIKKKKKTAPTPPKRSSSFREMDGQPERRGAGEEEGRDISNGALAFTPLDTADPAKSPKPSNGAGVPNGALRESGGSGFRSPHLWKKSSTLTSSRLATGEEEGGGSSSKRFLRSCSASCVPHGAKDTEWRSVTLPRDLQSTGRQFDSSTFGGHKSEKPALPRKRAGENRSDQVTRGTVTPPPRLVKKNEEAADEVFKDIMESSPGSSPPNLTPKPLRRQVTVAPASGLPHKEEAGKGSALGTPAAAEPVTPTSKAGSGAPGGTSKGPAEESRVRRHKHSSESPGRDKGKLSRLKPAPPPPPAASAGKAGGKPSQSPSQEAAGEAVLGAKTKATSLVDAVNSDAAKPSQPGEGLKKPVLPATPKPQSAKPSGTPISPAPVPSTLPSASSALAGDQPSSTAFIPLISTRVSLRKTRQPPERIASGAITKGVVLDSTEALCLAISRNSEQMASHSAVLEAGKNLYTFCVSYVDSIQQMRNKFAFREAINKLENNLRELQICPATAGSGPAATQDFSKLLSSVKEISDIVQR
Ras and Rab interactor 1/Tyrosine-protein kinase ABL1, sequence (Q13671 whole entry): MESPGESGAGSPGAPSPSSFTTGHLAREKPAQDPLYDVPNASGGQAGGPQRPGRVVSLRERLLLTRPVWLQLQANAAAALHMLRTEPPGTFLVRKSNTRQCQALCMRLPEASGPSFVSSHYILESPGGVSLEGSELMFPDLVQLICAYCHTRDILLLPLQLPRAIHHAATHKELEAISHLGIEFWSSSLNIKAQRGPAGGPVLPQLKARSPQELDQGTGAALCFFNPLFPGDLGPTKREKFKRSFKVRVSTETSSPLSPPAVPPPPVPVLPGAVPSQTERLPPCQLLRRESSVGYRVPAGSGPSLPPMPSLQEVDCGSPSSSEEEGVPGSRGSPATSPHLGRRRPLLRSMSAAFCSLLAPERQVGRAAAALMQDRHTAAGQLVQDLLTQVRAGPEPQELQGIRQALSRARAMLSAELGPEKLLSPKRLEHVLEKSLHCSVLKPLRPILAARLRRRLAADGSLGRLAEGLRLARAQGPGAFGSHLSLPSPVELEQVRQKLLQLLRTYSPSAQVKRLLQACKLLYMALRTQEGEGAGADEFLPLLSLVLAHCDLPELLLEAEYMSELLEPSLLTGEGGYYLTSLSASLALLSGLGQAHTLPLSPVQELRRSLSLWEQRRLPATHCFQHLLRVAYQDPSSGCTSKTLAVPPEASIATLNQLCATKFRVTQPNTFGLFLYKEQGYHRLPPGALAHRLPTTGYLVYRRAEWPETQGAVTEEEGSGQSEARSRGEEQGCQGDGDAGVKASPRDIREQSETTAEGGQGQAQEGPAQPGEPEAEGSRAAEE

[3] = biological target: Caspase-6 (Homo sapiens, UniProt P55212); experiment: human caspase-6 inhibitors, dose response, biochemical, VEID-R110 fluorescence, cherry-pick (AID 720632)
Caspase-6, sequence (P55212 24-179 limits assumed): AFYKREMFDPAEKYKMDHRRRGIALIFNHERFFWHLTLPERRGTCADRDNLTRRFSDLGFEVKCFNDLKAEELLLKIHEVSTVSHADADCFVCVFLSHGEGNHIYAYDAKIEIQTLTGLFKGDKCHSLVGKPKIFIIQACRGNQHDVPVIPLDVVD
Caspase-6, sequence (P55212 194-293 limits assumed): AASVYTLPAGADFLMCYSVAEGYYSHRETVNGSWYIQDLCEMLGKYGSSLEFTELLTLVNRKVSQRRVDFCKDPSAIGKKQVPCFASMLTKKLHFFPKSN

[4] = biological target: DNA (cytosine-5)-methyltransferase 1 (Homo sapiens, UniProt P26358); experiment: DNMT1 methyltransferase inhibitors, confirmation, biochemical, fluorescent molecular beacon (AID 602386); assay type: functional
DNA (cytosine-5)-methyltransferase 1, sequence (P26358 whole entry): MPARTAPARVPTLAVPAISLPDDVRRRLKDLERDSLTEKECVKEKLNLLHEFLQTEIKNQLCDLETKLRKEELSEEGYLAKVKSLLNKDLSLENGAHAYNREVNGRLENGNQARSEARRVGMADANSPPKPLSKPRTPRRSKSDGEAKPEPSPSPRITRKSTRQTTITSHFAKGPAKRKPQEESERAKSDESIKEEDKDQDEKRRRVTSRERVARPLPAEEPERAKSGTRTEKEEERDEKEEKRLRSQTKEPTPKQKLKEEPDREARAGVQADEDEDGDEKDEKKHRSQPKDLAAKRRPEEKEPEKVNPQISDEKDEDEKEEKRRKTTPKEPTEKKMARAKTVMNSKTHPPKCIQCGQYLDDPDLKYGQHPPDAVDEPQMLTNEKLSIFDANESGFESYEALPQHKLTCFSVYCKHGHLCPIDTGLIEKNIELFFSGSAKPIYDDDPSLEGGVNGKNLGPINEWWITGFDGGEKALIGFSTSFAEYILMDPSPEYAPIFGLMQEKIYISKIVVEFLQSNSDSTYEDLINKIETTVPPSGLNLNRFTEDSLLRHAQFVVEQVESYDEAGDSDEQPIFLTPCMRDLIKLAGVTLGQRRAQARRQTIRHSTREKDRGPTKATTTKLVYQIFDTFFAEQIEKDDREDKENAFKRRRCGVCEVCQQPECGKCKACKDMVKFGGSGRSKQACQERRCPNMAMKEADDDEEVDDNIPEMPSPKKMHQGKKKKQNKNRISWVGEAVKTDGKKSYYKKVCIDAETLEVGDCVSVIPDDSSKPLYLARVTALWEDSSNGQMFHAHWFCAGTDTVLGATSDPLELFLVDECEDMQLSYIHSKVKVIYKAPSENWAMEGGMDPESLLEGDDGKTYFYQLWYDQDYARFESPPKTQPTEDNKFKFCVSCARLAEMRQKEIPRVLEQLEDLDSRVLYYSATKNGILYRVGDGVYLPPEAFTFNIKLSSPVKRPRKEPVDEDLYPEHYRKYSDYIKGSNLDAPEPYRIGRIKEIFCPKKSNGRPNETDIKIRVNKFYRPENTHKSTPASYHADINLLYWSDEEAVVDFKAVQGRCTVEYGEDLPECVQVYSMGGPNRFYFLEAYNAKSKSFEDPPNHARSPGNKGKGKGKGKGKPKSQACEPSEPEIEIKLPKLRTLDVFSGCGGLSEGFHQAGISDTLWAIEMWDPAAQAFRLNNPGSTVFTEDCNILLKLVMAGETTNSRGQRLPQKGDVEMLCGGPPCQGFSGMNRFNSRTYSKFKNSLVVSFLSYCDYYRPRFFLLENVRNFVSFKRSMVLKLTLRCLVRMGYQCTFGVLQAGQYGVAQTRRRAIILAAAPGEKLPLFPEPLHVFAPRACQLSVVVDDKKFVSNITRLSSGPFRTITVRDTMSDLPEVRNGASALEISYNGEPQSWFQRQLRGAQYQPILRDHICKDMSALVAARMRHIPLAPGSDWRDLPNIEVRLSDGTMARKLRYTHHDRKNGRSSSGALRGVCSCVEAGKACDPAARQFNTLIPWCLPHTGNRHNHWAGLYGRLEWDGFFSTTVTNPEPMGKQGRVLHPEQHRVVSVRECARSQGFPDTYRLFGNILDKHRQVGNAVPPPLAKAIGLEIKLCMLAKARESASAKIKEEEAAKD

[5] = biological target: Phospholipase A2 (Homo sapiens, UniProt P04054); assay type: functional;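 note: confirmatory dose-response counterscreen on phospholipase A2, testing hits that came from an ultra-high-throughput screen for ATG4B inhibitors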
Phospholipase A2, sequence (P04054 whole entry): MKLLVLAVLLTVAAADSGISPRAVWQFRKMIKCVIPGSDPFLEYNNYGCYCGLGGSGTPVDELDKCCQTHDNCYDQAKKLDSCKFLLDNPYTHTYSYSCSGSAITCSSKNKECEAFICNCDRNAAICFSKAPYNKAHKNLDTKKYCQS

[6] = biological target: Cysteine protease ATG4B (Homo sapiens, UniProt Q9Y4P1); assay type: functional;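 note: Fluorescence-based dose-response confirmation assay measuring inhibition of ATG4B activity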
Cysteine protease ATG4B, sequence (Q9Y4P1 whole entry): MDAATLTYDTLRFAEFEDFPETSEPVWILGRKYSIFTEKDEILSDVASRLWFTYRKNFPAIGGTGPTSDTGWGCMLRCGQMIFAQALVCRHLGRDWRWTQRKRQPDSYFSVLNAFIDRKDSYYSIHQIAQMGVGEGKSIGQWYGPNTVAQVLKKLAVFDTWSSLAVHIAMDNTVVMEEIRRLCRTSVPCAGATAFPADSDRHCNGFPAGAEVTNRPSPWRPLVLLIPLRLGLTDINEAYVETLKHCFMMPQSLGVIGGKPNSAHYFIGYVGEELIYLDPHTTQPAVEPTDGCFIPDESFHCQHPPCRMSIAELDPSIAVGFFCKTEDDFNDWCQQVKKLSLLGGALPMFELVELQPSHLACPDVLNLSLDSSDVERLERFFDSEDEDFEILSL

Row | IC50 [1] | IC50 [2] | AC50 [3] | IC50 [4] | IC50 [5] | IC50 [6] | Compound
1 | 3.12 µM (active) | 24.9 µM (inactive) |  |  |  |  | Cc1ccc(-n2c(SCC(=O)N3Cc4ccccc4CC3C(=O)O)nnc2-c2cccnc2)c(C)c1 (configuration not stated)
2 |  |  | 38.4 µM (active) | 11.7 µM (active) |  |  | O=C(O)CCc1ccc(S(=O)(=O)Nc2cc(C(F)(F)F)ccc2N2CCCC2)cc1
3 | 10.6 µM (active) |  |  |  | 11 µM (active) | 15 µM (active) | CCOc1cc(/C=C2/SC(=O)N(CC(=O)N3CCc4ccccc4C3)C2=O)ccc1OCC(=O)O
